The text below walks through data of PMC10340768, “New Hydrolyzable Tannin with Potent Antioxidant and α-Glucosidase Inhibitory Activity from Black Tea Produced from Camellia taliensis” (Foods, 2023).

A short description of assay [1]: DPPH radical scavenging assay.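 On all read-outs here: compounds in EtOH mixed 1:1 with 200 µM DPPH in EtOH in 96-well plates, kept dark 15 min at room temperature, with blank control and ascorbic acid as reference.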 Particulars: for DPPH Inhibition Ratio (%): at a concentration of 500 μM; for IC50: half-maximal inhibitory concentration to DPPH radical, means ± SD (n = 3). In general terms: DPPH is a stable violet radical that fades when it is reduced.
Procedure: (§1) The DPPH assay was conducted as follows: the tested compound (final concentration: 0.2–1000 μM in EtOH, 100 μL) and DPPH solution (200 μM in EtOH, 100 μL) were sequentially added to 96-well plates at room temperature, then hid from the light for 15 min. The blank control and positive control (ascorbic acid) were set simultaneously. OD values at 517 nm were detected with a microplate reader. ABTS^+ assay was carried out as follows: firstly, the ABTS^+ solution was prepared using the procedure in our previous paper [19]. Then, the tested compound (final concentration: 0.2–1000 μM in EtOH, 10 μL) and ABTS^+ solution (200 μL) were added to 96-well plates at room temperature in an orderly manner, and then hided from light for 6–8 min. The blank control and positive control (trolox) were set synchronously. OD values at 405 nm were then detected with a microplate reader. All the reactions were set up three replicates.
Assay [2] can be described thus: ABTS+ radical scavenging assay.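 On all read-outs here: ABTS+ radical solution incubated with compound in EtOH in 96-well plates for 6–8 min in the dark at room temperature, versus blank control, trolox as reference.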 Conditions: for ABTS+ Inhibition Ratio (%): at a concentration of 500 μM; for IC50: half-maximal inhibitory concentration to ABTS+ radical, means ± SD (n = 3).
Procedure: as §1
The target in a further assay is α-glucosidase. As to the kind of experiment: α-Glucosidase inhibitory activity (PNPG substrate). The class given is biochemical. Particulars: means ± SD (n = 3).

Procedure for α-glucosidase: Initially, 96-well plates with the following ingredients were added in a proper order: testing compound (50 μM), α-glucosidase solution (0.025 U/mL), buffer, and the zymolyte (1 mM), and kept at 37 °C for 50 min. […] All the reactions were set up with three replicates. OD values at 405 nm were recorded with a microplate reader.

With `O=C(O)/C=C/c1ccc(O)cc1` [Compound 29, E-p-hydroxycinnamic acid], in assay [1], the “DPPH Inhibition Ratio (%)” value is 1.55%. In addition, the “ABTS+ Inhibition Ratio (%)” value in assay [2] is 8.12%.

As a reminder, the IC50 is the concentration that gives 50% inhibition. A low value points to greater potency. In assay [2], `O=c1c(O[C@@H]2O[C@H](CO)[C@@H](O)[C@H](O)[C@H]2O)c(-c2ccc(O)c(O)c2)oc2cc(O)cc(O)c12` [Compound 11, quercetin 3-O-β-D-glucopyranoside] returned an IC50 of 322.8 ± 0.6 µM.

On to `O=C(OC[C@H]1O[C@@H](OC(=O)c2cc(O)c(O)c(O)c2)[C@H](OC(=O)c2cc(O)c(O)c(O)c2)[C@@H](O)[C@@H]1O)c1cc(O)c(O)c(O)c1` [Compound 7, 1,2,6-tri-O-galloy-β-D-glucopyranose], for which the results for the IC50 (in assay [1]; in assay [2]; against α-glucosidase) were 532 ± 38 µM, 128.4 ± 0.9 µM and 1.96 ± 0.05 µM, respectively.

Turning to `O=C(O)c1cc(O)c(O)c(O)c1` [Compound 19, gallic acid], the IC50 was 237 ± 22.6 µM in assay [1] and 202 ± 3.4 µM in assay [2].

Take `O=C(O)c1ccc(O)c(O)c1` [Compound 20, 3,4-dihydroxybenzoic acid]: the IC50 in assay [1] amounted to 2120 ± 336 µM; in assay [2], 462 ± 9.3 µM.

Consider `O=C(/C=C/c1ccc(O)c(O)c1)O[C@@H]1CC(C(=O)O)=C[C@@H](O)[C@H]1O` [Compound 27, 5-O-caffeoylshikimic acid], for which the IC50 in assay [1] was determined as 722 ± 43.2 µM; in assay [2], 545 ± 12.8 µM.

On to `O=c1c(O[C@@H]2O[C@H](CO)[C@@H](O)[C@H](O)[C@H]2O)c(-c2ccc(O)cc2)oc2cc(O)cc(O)c12` [Compound 9, kaempferol 3-O-β-D-glucopyranoside], for which the “DPPH Inhibition Ratio (%)” value in assay [1] worked out at 0.97%. Also, in assay [2], the “ABTS+ Inhibition Ratio (%)” value was found to be 0.19%.

With `C[C@@H]1O[C@@H](Oc2c(-c3ccc(O)cc3)oc3cc(O)cc(O)c3c2=O)[C@H](O)[C@H](O)[C@H]1O` [Compound 15, kaempferol 3-O-α-L-rhamnopyranoside], in assay [1], the “DPPH Inhibition Ratio (%)” value was 1.04%. Besides, the “ABTS+ Inhibition Ratio (%)” value in assay [2] was found to be 8.00%.

In turn, `Cc1c(C)c2c(c(C)c1O)CCC(C)(C(=O)O)O2` (centres unmarked) [Trolox, trolox, reference compound] registered an IC50 in assay [2] of 405 ± 6.2 µM.

On to `O=C(O)/C=C/c1ccc(O)c(O)c1` [Compound 28, caffeic acid], for which the IC50 in assay [1] was determined as 479 ± 33.8 µM; in assay [2], 199 ± 4.1 µM.

With `O=C(O[C@H]1C(O)O[C@@H]2COC(=O)c3cc(O)c(O)c(O)c3-c3c(cc(O)c(O)c3O)C(=O)O[C@H]2[C@@H]1O)c1cc(O)c(O)c(O)c1` (stereo partly drawn) [Compound 3, 2-O-galloyl-4,6-O-(S)-hexahydroxydiphenoyl-β-D-glucopyranose], the IC50 came to 941 ± 191 µM in assay [1], 106 ± 0.5 µM in assay [2] and 1.74 ± 0.03 µM at α-glucosidase.

Take `O=C(C=Cc1ccc(O)cc1)OC1CC(O)(C(=O)O)CC(O)C1O` (centres unmarked) [Compound 26, 5-O-(E)-p-coumaroylquinic acid]: in assay [1], the “DPPH Inhibition Ratio (%)” value was 6.92%. In assay [2], the “ABTS+ Inhibition Ratio (%)” value came out at 6.82%.

With `C[C@@H]1O[C@@H](OC[C@H]2O[C@@H](Oc3c(-c4ccc(O)cc4)oc4cc(O)cc(O)c4c3=O)[C@H](O)[C@@H](O)[C@@H]2O)[C@H](O)[C@H](O)[C@H]1O` [Compound 12, kaempferol 3-O-rutinoside], the “DPPH Inhibition Ratio (%)” value in assay [1] came out at 8.58%. For the same compound, in assay [2], the “ABTS+ Inhibition Ratio (%)” value was 4.24%.

`O=c1c(O[C@@H]2O[C@H](CO)[C@H](O)[C@H](O)[C@H]2O)c(-c2ccc(O)cc2)oc2cc(O)cc(O)c12` [Compound 14, kaempferol 3-O-β-D-galactopyranoside]: in assay [1], the “DPPH Inhibition Ratio (%)” value is −0.94%. The “ABTS+ Inhibition Ratio (%)” value in assay [2] is 4.03%.

As to `C[C@@H]1O[C@@H](OC[C@H]2O[C@@H](Oc3c(-c4ccc(O)c(O)c4)oc4cc(O)cc(O)c4c3=O)[C@H](O)[C@@H](O)[C@@H]2O)[C@H](O)[C@H](O)[C@H]1O` [Compound 13, rutin], the IC50 in assay [1] is 900 ± 63.4 µM; in assay [2], 266 ± 5.4 µM.

With “1-(3′,4′-dihydroxycinnamoyl) cyclopentane-2,3-diol [Compound 30]”, the IC50 was 548 ± 61.5 µM in assay [1] and 307 ± 3.3 µM in assay [2].

For `O=C(OC[C@H]1O[C@@H](OC(=O)c2cc(O)c(O)c(O)c2)[C@H](O)[C@@H](O)[C@@H]1OC(=O)c1cc(O)c(O)c(O)c1)c1cc(O)c(O)c(O)c1` [Compound 8, 1,4,6-tri-O-galloyl-β-D-glucopyranose], the IC50 in assay [1] was 156 ± 26.1 µM; in assay [2], 77.2 ± 0.7 µM; against α-glucosidase, 2.01 ± 0.02 µM.

Regarding `O=C(O)c1cccc(O)c1` [Compound 22, m-hydroxybenzoic acid], the “DPPH Inhibition Ratio (%)” value in assay [1] is given as 7.58%. Also, in assay [2], the “ABTS+ Inhibition Ratio (%)” value was found to be 7.00%.

For `O=C(OC[C@H]1O[C@@H](OC(=O)c2cc(O)c(O)c(O)c2)[C@H](O)[C@@H](O)[C@@H]1O)c1cc(O)c(O)c(O)c1` [Compound 6, 1,6-di-O-galloyl-β-D-glucopyranose], the IC50 in assay [1] came to 217 ± 27.4 µM; in assay [2], 99.7 ± 1.4 µM.

For the compound `O=C(/C=C/c1ccc(O)cc1)OC[C@H]1O[C@@H](Oc2c(-c3ccc(O)cc3)oc3cc(O)cc(O)c3c2=O)[C@H](O)[C@@H](O)[C@@H]1O` [Compound 10, kaempferol 3-O-(6″-trans-p-coumaroyl)-β-D-glucopyranoside], in assay [1], the “DPPH Inhibition Ratio (%)” value stood at 6.28%. In assay [2], the “ABTS+ Inhibition Ratio (%)” value is on record as 11.55%.

On to `O=C1O[C@@H](c2ccc(O)cc2)Cc2cc(O)cc(O)c21` [Compound 32, (3R)-thunberginol C], for which the IC50 was determined as 3940 ± 825 µM in assay [1] and 560.3 ± 3.3 µM in assay [2].

As for `C[C@@H]1O[C@@H](Oc2c(-c3ccc(O)c(O)c3)oc3cc(O)cc(O)c3c2=O)[C@H](O[C@@H]2O[C@H](CO)[C@@H](O)[C@H](O)[C@H]2O)[C@H](O)[C@H]1O` [Compound 17, quercetin 3-(2″-β-D-glucosyl)-α-L-rhamnopyranoside], the IC50 was found to be 2620 ± 500 µM in assay [1] and 480.9 ± 4.1 µM in assay [2].

On to `O=C(O[C@@H]1O[C@@H]2COC(=O)c3cc(O)c(O)c(O)c3-c3c(cc(O)c(O)c3O)C(=O)O[C@H]2[C@H](O)[C@H]1O)c1cc(O)c(O)c(O)c1` [Compound 4, 1-O-galloyl-4,6-O-(S)-hexahydroxydiphenoyl-β-D-glucopyranose], for which the IC50 in assay [1] is 312 ± 10.8 µM; in assay [2], 84.8 ± 0.4 µM; against α-glucosidase it was 1.96 ± 0.06 µM.

As for `COC(=O)c1cc(O)c(O)c(O)c1` [Compound 23, methyl gallate], the results for the IC50 in assay [1] and in assay [2] were 299 ± 32.3 µM and 187 ± 2.7 µM, respectively.

For the compound `O=C(O[C@@H]1O[C@@H]2COC(=O)c3cc(O)c(O)c4oc5c(O)c(O)cc(c5c34)C(=O)O[C@H]2[C@H](O)[C@H]1O)c1cc(O)c(O)c(O)c1` [Compound 1, 1-O-galloyl-4,6-tetrahydroxydibenzofurandicarboxyl-β-D-glucopyranose], the values for the IC50 (in assay [1]; in assay [2]; at α-glucosidase) were 339 ± 24.7 µM, 111 ± 2.1 µM and 1.77 ± 0.05 µM, respectively.

As for `O=c1c(O)c(-c2ccc(O)c(O)c2)oc2cc(O)cc(O)c12` [Compound 16, quercetin], the IC50 worked out at 1140 ± 207 µM in assay [1] and 206 ± 2.6 µM in assay [2].

On to `C[C@@H]1O[C@@H](Oc2c(-c3ccc(O)cc3)oc3cc(O)cc(O)c3c2=O)[C@H](O[C@@H]2O[C@H](CO)[C@@H](O)[C@H](O)[C@H]2O)[C@H](O)[C@H]1O` [Compound 18, kaempferol 3-(2″-β-D-glucosyl)-α-L-rhamnopyranoside], for which, in assay [1], the “DPPH Inhibition Ratio (%)” value turned out to be 1.08%. The “ABTS+ Inhibition Ratio (%)” value in assay [2] turned out to be 5.89%.

Regarding `O=C(O)c1ccc(O)cc1` [Compound 21, p-hydroxybenzoic acid], the “DPPH Inhibition Ratio (%)” value in assay [1] is 3.32%. Besides, the “ABTS+ Inhibition Ratio (%)” value in assay [2] is reported as 3.21%.

`O=C(O)/C=C\c1ccc(O[C@@H]2O[C@H](COC(=O)c3cc(O)c(O)c(O)c3)[C@@H](O)[C@H](O)[C@H]2O)cc1` [Compound 2, 4-O-(6′-O-galloyl-β-D-glucopyranosyl)-cis-p-coumaric acid]: the results for the IC50 in assay [1] and in assay [2] were 502 ± 14 µM and 400 ± 9.6 µM, respectively.

Regarding `O=C1O[C@H]([C@@H](O)CO)C(O)=C1O` [Ascorbic acid, ascorbic acid, reference compound], the IC50 in assay [1] was determined as 1200 ± 87.7 µM.

`O=C(O[C@@H]1O[C@@H]2COC(=O)c3cc(O)c(O)c(O)c3-c3c(cc(O)c(O)c3O)C(=O)O[C@H]2[C@H](O)[C@H]1OC(=O)c1cc(O)c(O)c(O)c1)c1cc(O)c(O)c(O)c1` [Compound 5, 1,2-di-O-galloyl-4,6-O-(S)-hexahydroxydiphenoyl-β-D-glucopyranose]: the IC50 in assay [1] was determined as 301 ± 79.6 µM; in assay [2] it was 75.6 ± 2.1 µM; against α-glucosidase, 0.67 ± 0.04 µM.
